For test [1], the target named is Pim-2 (Homo sapiens (Human), UniProt Q9P1W9). Put plainly: Pim enzyme assay (HTRF, 96-well), Pim-2. In kind it is biochemical. The settings on record: full length recombinant Pim-2, biotinylated-BAD (S112) peptide, 10-point curve, 45 min RT, read-out: Pim-2 IC50 IP. An outline of the steps:
(§1)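 HTRF detection of biotinylated BAD (S112) phosphorylation by full-length recombinant His-tagged Pim-1 or Pim-2 in 60 mM Hepes pH 7.0, 0.05% BSA, 2 mM DTT at 22 °C: 2 h for Pim-1, 45 min for Pim-2. Stopped with EDTA; IC50 from 4-parameter logistic fit of percent of control.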
In general terms: Time-resolved FRET reads energy transfer from a long-lived donor to a nearby acceptor.

Test [2] has as its system KMS-12-BM myeloma cell line. Put plainly: Pim KMS-12 cell assay (phospho-BAD S112 / total BAD, MSD). The settings on record: Homo sapiens, KMS-12-BM.
Test [3] addresses Pim-1 (Homo sapiens (Human), UniProt P11309). Put plainly: Pim enzyme assay (HTRF, 96-well), Pim-1. It counts as biochemical. The settings on record: full length recombinant Pim-1, biotinylated-BAD (S112) peptide, 10-point curve, 2 h RT, read-out: Pim-1 IC50 IP. Put shortly:
as §1

Where [4] appears, read: read-out: KMS-12-BM IC50 IP, KMS-12-BM cells, phospho-BAD (S112) vs total BAD, 1 hour 50 min with compound.

Molecules are shown by their SMILES. Like-named read-outs stand apart in the source and are kept apart here.

Sequence of Pim-2 (Q9P1W9 whole entry): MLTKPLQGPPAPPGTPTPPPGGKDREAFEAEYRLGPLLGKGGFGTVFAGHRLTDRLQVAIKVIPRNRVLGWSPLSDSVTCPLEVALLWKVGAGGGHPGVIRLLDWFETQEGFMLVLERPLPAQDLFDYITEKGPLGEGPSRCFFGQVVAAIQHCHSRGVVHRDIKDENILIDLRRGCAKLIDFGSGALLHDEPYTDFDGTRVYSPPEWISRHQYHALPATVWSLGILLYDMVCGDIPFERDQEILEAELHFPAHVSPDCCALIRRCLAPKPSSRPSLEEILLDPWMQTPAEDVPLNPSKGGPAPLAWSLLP
Sequence of Pim-1 (P11309 whole entry): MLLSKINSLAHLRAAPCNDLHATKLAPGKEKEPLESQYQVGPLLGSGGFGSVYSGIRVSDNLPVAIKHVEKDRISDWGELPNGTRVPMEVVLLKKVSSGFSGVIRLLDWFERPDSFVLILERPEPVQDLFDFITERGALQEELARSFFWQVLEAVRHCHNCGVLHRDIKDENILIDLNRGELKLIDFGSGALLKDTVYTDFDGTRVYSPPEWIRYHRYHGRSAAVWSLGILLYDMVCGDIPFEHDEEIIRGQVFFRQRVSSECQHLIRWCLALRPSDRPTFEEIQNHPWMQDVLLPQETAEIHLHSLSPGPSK

One may read the IC50 as the concentration that inhibits the measured activity by half. In the case of `O=C1NCCc2[nH]c(-c3cccc4ccc(Nc5cccc(F)c5)nc34)cc21` [Example 45, 2-(2-((3-fluorophenyl)amino)-8-quinolinyl)-1,5,6,7-tetrahydro-4H-pyrrolo[3,2-c]pyridin-4-one], the IC50 stood at 7.7 nM in test [1], 1450 nM in test [2] (setting [4]) and 1.5 nM in test [3].

As to `O=C1NCCc2[nH]c(-c3cccc4ccc(NC5CCCC5)nc34)cc21` [Example 78, 2-(2-(cyclopentylamino)quinolin-8-yl)-6,7-dihydro-1H-pyrrolo[3,2-c]pyridin-4(5H)-one], the concentration for half-maximal inhibition (IC50) is 19 nM in test [1], 5500 nM in test [2] (setting [4]) and 3.6 nM in test [3].

In the case of `O=C1NCCc2[nH]c(-c3cccc4ccc(OC5CCCC5)nc34)cc21` [Example 80, 2-(2-(cyclopentyloxy)quinolin-8-yl)-6,7-dihydro-1H-pyrrolo[3,2-c]pyridin-4(5H)-one], the IC50 in test [1] was determined as 30.5 nM; in test [2] (setting [4]), 14400 nM; in test [3] it was 7.4 nM.

For `O=C1NCCc2[nH]c(-c3cccc4ccc(NC5CCCCC5)nc34)cc21` [Example 83, 2-(2-(cyclohexylamino)quinolin-8-yl)-6,7-dihydro-1H-pyrrolo[3,2-c]pyridin-4(5H)-one], the IC50 in test [1] came to 15 nM; in test [2] (read-out: KMS-12-BM IC50 IP), 2910 nM; in test [3], 2 nM.

As to `O=C1NCCc2[nH]c(-c3cccc4ccc(N5CCOCC5)nc34)cc21` [Example 84, 2-(2-morpholinoquinolin-8-yl)-6,7-dihydro-1H-pyrrolo[3,2-c]pyridin-4(5H)-one], the figures for the IC50 in test [1], in test [2] (setting [4]) and in test [3] were 115 nM, 12200 nM and 20.6 nM, respectively.

As to `O=C1NCCc2[nH]c(-c3cccc4ccc(NC5CCOCC5)nc34)cc21` [Example 85, 2-(2-((Tetrahydro-2H-pyran-4-yl)amino)quinolin-8-yl)-6,7-dihydro-1H-pyrrolo[3,2-c]pyridin-4(5H)-one], the IC50 came out at 22.6 nM in test [1], 953 nM in test [2] (setting [4]) and 4.4 nM in test [3].

Consider `Nc1ccc(-c2ccc3cccc(-c4cc5c([nH]4)CCNC5=O)c3n2)c(F)n1` [Example 87, 2-(2-(6-amino-2-fluoropyridin-3-yl)quinolin-8-yl)-6,7-dihydro-1H-pyrrolo[3,2-c]pyridin-4(5H)-one], for which the figures for the IC50 in test [1], in test [2] (setting [4]) and in test [3] were 14.7 nM, 1780 nM and 3.8 nM, respectively.

For `O=C1NCCc2[nH]c(-c3cccc4ccc(O[C@H]5CCCNC5)nc34)cc21` [Example 92, (S)-2-(2-(piperidin-3-yloxy)quinolin-8-yl)-6,7-dihydro-1H-pyrrolo[3,2-c]pyridin-4(5H)-one], the IC50 in test [1] is 62 nM; in test [2] (setting [4]) it was 12200 nM; in test [3], 16.5 nM.

Take `Cc1cccc(C)c1Nc1ccc2cccc(-c3cc4c([nH]3)CCNC4=O)c2n1` [Example 102, 2-(2-((2,6-dimethylphenyl)amino)quinolin-8-yl)-6,7-dihydro-1H-pyrrolo[3,2-c]pyridin-4(5H)-one]: the figures for the IC50 in test [1], in test [2] (read-out: KMS-12-BM IC50 IP) and in test [3] were 73.9 nM, 10400 nM and 7.6 nM, respectively.

With `O=C1NCCc2[nH]c(-c3cccc4ccc(Oc5ccccc5Cl)nc34)cc21` [Example 103, 2-(2-(2-chlorophenoxy)quinolin-8-yl)-6,7-dihydro-1H-pyrrolo[3,2-c]pyridin-4(5H)-one], the values for the IC50 in test [1], in test [2] (read-out: KMS-12-BM IC50 IP) and in test [3] were 18.1 nM, 7730 nM and 8.1 nM, respectively.

Regarding `Cc1cc2cccc(-c3cc4c([nH]3)CCNC4=O)c2nc1Nc1ccccc1` [Example 105, 2-(3-methyl-2-(phenylamino)quinolin-8-yl)-6,7-dihydro-1H-pyrrolo[3,2-c]pyridin-4(5H)-one], the results for the IC50 in test [1], in test [2] (setting [4]) and in test [3] were 1.2 nM, 407 nM and 0.8 nM, respectively.

As to `Cc1cc2cccc(-c3cc4c([nH]3)CCNC4=O)c2nc1Nc1ccc(Br)cc1` [Example 106, 2-(2-((4-bromophenyl)amino)-3-methylquinolin-8-yl)-6,7-dihydro-1H-pyrrolo[3,2-c]pyridin-4(5H)-one], the IC50 turned out to be 10.5 nM in test [1], 8440 nM in test [2] (setting [4]) and 4.5 nM in test [3].

Turning to `O=c1[nH]ccc2[nH]c(-c3cccc4ccc(Nc5ccccc5Cl)nc34)cc12` [Example 107, 2-(2-((2-chlorophenyl)amino)quinolin-8-yl)-1H-pyrrolo[3,2-c]pyridin-4(5H)-one], the results for the IC50 in test [1], in test [2] (setting [4]) and in test [3] were 32.2 nM, 15600 nM and 5.2 nM, respectively.

On to `O=C1NCCc2[nH]c(-c3cccc4ccc(Nc5ccccc5Cl)nc34)cc21` [Example 108, 2-(2-((2-chlorophenyl)amino)quinolin-8-yl)-6,7-dihydro-1H-pyrrolo[3,2-c]pyridin-4(5H)-one], for which the IC50 in test [1] was 13.4 nM; in test [2] (setting [4]) it was 6740 nM; in test [3], 1.5 nM.

`Nc1cccc(Nc2ccc3cccc(-c4cc5c([nH]4)CCNC5=O)c3n2)c1` [Example 110, 2-(2-((3-aminophenyl)amino)quinolin-8-yl)-6,7-dihydro-1H-pyrrolo[3,2-c]pyridin-4(5H)-one]: the IC50 in test [1] turned out to be 2.9 nM; in test [2] (setting [4]), 1130 nM; in test [3], 1.1 nM.

With `O=C1NCCc2[nH]c(-c3cccc4ccc(N[C@H]5CCCNC5)nc34)cc21` [Example 123, (S)-2-(2-(piperidin-3-ylamino)quinolin-8-yl)-6,7-dihydro-1H-pyrrolo[3,2-c]pyridin-4(5H)-one], the figures for the IC50 in test [1], in test [2] (setting [4]) and in test [3] were 12 nM, 2510 nM and 1 nM, respectively.

As to `Cc1nc2cccc(-c3cc4c([nH]3)CCNC4=O)c2nc1NC1CCOCC1` [Example 127, 2-(2-methyl-3-((tetrahydro-2H-pyran-4-yl)amino)quinoxalin-5-yl)-6,7-dihydro-1H-pyrrolo[3,2-c]pyridin-4(5H)-one], the figures for the IC50 in test [1], in test [2] (setting [4]) and in test [3] were 12.6 nM, 427 nM and 17.1 nM, respectively.

On to `Cc1nc2cccc(-c3cc4c([nH]3)CCNC4=O)c2nc1NC1CCCC1` [Example 130, 2-(3-(cyclopentylamino)-2-methylquinoxalin-5-yl)-6,7-dihydro-1H-pyrrolo[3,2-c]pyridin-4(5H)-one], for which the IC50 in test [1] was determined as 5.5 nM; in test [2] (setting [4]), 371 nM; in test [3], 5.8 nM.

For `Cc1nc2cccc(-c3cc4c([nH]3)CCNC4=O)c2nc1NC1CCCCC1` [Example 132, 2-(3-(cyclohexylamino)-2-methylquinoxalin-5-yl)-6,7-dihydro-1H-pyrrolo[3,2-c]pyridin-4(5H)-one], the IC50 in test [1] came out at 4.9 nM; in test [2] (read-out: KMS-12-BM IC50 IP), 143 nM; in test [3], 5.3 nM.

For `C=C(C)CNc1nc2c(-c3cc4c([nH]3)CCNC4=O)cccc2nc1C` [Example 135, 2-(2-methyl-3-((2-methylallyl)amino)quinoxalin-5-yl)-6,7-dihydro-1H-pyrrolo[3,2-c]pyridin-4(5H)-one], the IC50 in test [1] was 4.7 nM; in test [2] (setting [4]), 217 nM; in test [3] it was 7.6 nM.

Take `O=C1NCCn2cc(-c3cccc4ccc(Nc5ccccc5)nc34)cc21` [Example 165, 7-(2-(phenylamino)quinolin-8-yl)-3,4-dihydropyrrolo[1,2-a]pyrazin-1(2H)-one]: the results for the IC50 in test [1], in test [2] (setting [4]) and in test [3] were 17.9 nM, 3850 nM and 6.7 nM, respectively.

Consider `O=C1NCCn2cc(-c3cccc4ccc(Nc5cccnc5)nc34)cc21` [Example 166, 7-(2-(pyridin-3-ylamino)quinolin-8-yl)-3,4-dihydropyrrolo[1,2-a]pyrazin-1(2H)-one], for which the IC50 in test [1] stood at 2.2 nM; in test [2] (setting [4]) it was 4310 nM; in test [3] it was 1.1 nM.

For the molecule `O=C1NCCc2[nH]c(-c3cccc4ccc(Oc5c(F)cccc5F)nc34)cc21` [Example 176, 2-(2-(2,6-difluorophenoxy)quinolin-8-yl)-6,7-dihydro-1H-pyrrolo[3,2-c]pyridin-4(5H)-one], the IC50 was found to be 4.7 nM in test [1], 3580 nM in test [2] (setting [4]) and 2.6 nM in test [3].

Take `O=C1NCCc2[nH]c(-c3cccc4ncc(Oc5ccccc5)nc34)cc21` [Example 177, 2-(3-phenoxyquinoxalin-5-yl)-6,7-dihydro-1H-pyrrolo[3,2-c]pyridin-4(5H)-one]: the IC50 stood at 18.4 nM in test [1], 4660 nM in test [2] (setting [4]) and 12.4 nM in test [3].

Consider `O=C1NCCc2[nH]c(-c3cccc4ncc(Nc5ccccc5)nc34)cc21` [Example 180, 2-(3-(phenylamino)quinoxalin-5-yl)-6,7-dihydro-1H-pyrrolo[3,2-c]pyridin-4(5H)-one], for which the figures for the IC50 in test [1], in test [2] (setting [4]) and in test [3] were 2.8 nM, 390 nM and 1.9 nM, respectively.

As to `Cc1nc2cccc(-c3cc4c([nH]3)CCNC4=O)c2nc1Nc1ccccc1` [Example 183, 2-(2-methyl-3-(phenylamino)quinoxalin-5-yl)-6,7-dihydro-1H-pyrrolo[3,2-c]pyridin-4(5H)-one], the figures for the IC50 in test [1], in test [2] (setting [4]) and in test [3] were 1.6 nM, 165 nM and 1.5 nM, respectively.

In the case of `CCN(c1ccccc1)c1cnc2cccc(-c3cc4c([nH]3)CCNC4=O)c2n1` [Example 186, 2-(3-(ethyl(phenyl)amino)quinoxalin-5-yl)-6,7-dihydro-1H-pyrrolo[3,2-c]pyridin-4(5H)-one], the IC50 was found to be 4.3 nM in test [1], 1490 nM in test [2] (setting [4]) and 2.2 nM in test [3].

Values taken from patent US9394297B2, “Amides as pim inhibitors” (AMGEN INC., priority 2012, dated 2016).
